# Assay results published in the METLIN SMRT retention time set (Domingo-Almenara et al. 2019).
# Test: gradient 5% acetonitrile 3 min, to 50% in 2 min, to 85% in 15 min, held 3 min, 100 µL/min
# Conditions: column: Zorbax Extend-C18 2.1 x 50 mm; eluents: water / acetonitrile, 0.1% formic acid
# Summary of the method: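 Pure standards were analyzed in mixtures of ~100 molecules using HPLC coupled to a quadrupole time-of-flight mass spectrometer, in both positive and negative ionization mode. Separation used a Zorbax Extend-C18 column (2.1 × 50 mm, 1.8 μm) at 100 μL/min, with water and acetonitrile each containing 0.1% formic acid. Dead and dwell volumes were 40 μL and 900 μL, and data were collected over 3 months. Retention time was read from computationally picked adduct peaks, each inspected manually.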
row,RP-LC retention time,SMILES
1,833 s,Cc1nc(-c2noc(-c3ccncc3)n2)cn1CC(=O)Nc1ccc(F)cc1
2,652 s,CC(C)n1c(CCNC(=O)c2ccccc2F)nc2cccnc21
3,1090 s,O=C(CCc1nc(-c2ccc(N3CCCCC3)cc2)no1)NCCC1=CCCCC1
4,761 s,CCN(CC)C(=O)c1ccc2c(c1)N(CC(=O)NC1CCCCC1)C(=O)CS2
5,688 s,CCC1Oc2ccc(S(=O)(=O)N3CCC(C(=O)NC4CC4)CC3)cc2NC1=O (stereo not drawn)
6,1050 s,Cc1csc(-c2cc(S(=O)(=O)NCc3ccccc3Cl)c(C)s2)n1
7,656 s,CCCNC(=O)C1CCN(c2ccc(SCC(=O)NCc3ccc(C)cc3)nn2)CC1
8,626 s,CC(=O)N1C[C@@H](C(=O)NCCCc2c(C)noc2C)[C@H](c2nc(C)no2)C1
9,790 s,COc1ccc2nc(C(=O)N(C)Cc3ccccc3)cn2n1
10,678 s,COc1ccc(CNC(=O)N2CC=C(c3cn(C(C)C)c4ncccc34)CC2)cc1
11,976 s,O=C(Cn1c2ccccc2c2ncn(Cc3nc(-c4ccccc4)no3)c(=O)c21)NC1CCCCC1
12,565 s,O=C(NCC1CCS(=O)(=O)C1)c1cccnc1 (stereo not drawn)
13,741 s,CC(C)NC(=O)C1CCCN(c2nc3ncn(CC(=O)Nc4ccccc4Cl)c(=O)c3s2)C1 (stereo not drawn)
14,969 s,O=c1c2sccc2n(Cc2nc(-c3ccccc3)no2)c(=O)n1-c1ccccc1F
15,754 s,CCc1cccc(NC(=O)Cn2c(=O)nc(N3CCCCC3)c3ccccc32)c1
16,630 s,CCOc1ccc(-c2noc(N3CCC(C(=O)N4CCN(CC)CC4)CC3)n2)cc1OC
17,590 s,O=C(c1ccccc1Cl)N1CCN(c2cnn3c(C4CC4)nnc3c2)CC1
18,841 s,COc1cccc(NC(=O)Cn2c(C(F)(F)F)nc3cc4c(cc32)OCCO4)c1
19,802 s,Cc1ccc(-c2nc3ncccn3c2Nc2ccccc2C)cc1
20,1000 s,Cc1cccc(-c2noc(-c3nn(-c4ccc(Cl)cc4)ccc3=O)n2)c1
21,651 s,COC1CCN(CC2CCCCCN2C(=O)Nc2ccc3c(c2)OCCO3)CC1 (stereo not drawn)
22,903 s,CCOC(=O)CC(=O)N1CCSC1COc1ccccc1OC (stereo not drawn)

row,RP-LC retention time,SMILES
1,905 s,COc1ccc(-c2nc(-c3cccc(-c4ccn[nH]4)c3)no2)cc1OC
2,629 s,Cc1ccccc1CNC(=O)CN1CCN(Cc2ccc(F)cc2Cl)C1=O
3,699 s,CCOc1ccc(NC(=O)C2CCN(S(=O)(=O)c3cn(C)cn3)CC2)cc1
4,559 s,Cc1nc(-c2ccccc2)cc2nn(CC(=O)NCc3ccc(F)cc3)c(=O)n12
5,963 s,CCc1ccc(OCC(=O)N(Cc2ccc(Br)o2)C2CCS(=O)(=O)C2)cc1 (stereo not drawn)
6,881 s,O=C(c1ccc(C(F)(F)F)cc1)N1CC2CN(S(=O)(=O)c3ccccc3)CC(C1)O2
7,692 s,O=C(NCCc1c[nH]c2ccccc12)c1nnc2n(c1=O)CCN2c1ccc(F)cc1
8,1120 s,Cc1ccccc1Oc1nccnc1N1CCC(C(=O)NC(C)CCc2ccccc2)CC1 (stereo not drawn)
9,780 s,O=C(Cn1c(=O)cc(C(=O)N2CCCC2)c2ccccc21)Nc1cccc(Br)c1
10,611 s,CCOc1cc(=O)n2c(c1C(=O)NC1CC1)CCCCC2
11,1100 s,O=C1COc2ccccc2N1Cc1nc(-c2ccc(OC(F)(F)F)cc2)no1
12,940 s,COc1ccc(NC(=O)N2CCCC2c2nc(-c3ccc(F)cc3F)no2)cc1F (stereo not drawn)
13,795 s,O=C(NCCCO)C(=O)Nc1ccc(Cl)c(C(F)(F)F)c1
14,734 s,Cc1nc2cc(N3CC(C(=O)NCc4cccc(Cl)c4)CC3=O)ccc2o1 (stereo not drawn)
15,992 s,CSc1cccc(N2C(=O)C3N=NN(Cc4nc(-c5ccccc5)no4)C3C2=O)c1 (stereo not drawn)
16,1160 s,Cc1ccc(Oc2nccnc2N2CCCC(C(=O)NC(C)c3ccc(C)cc3C)C2)cc1 (stereo not drawn)
17,588 s,NCCC1CCN(C(=O)Nc2cc(F)ccc2F)CC1
18,711 s,COc1ccc(C2(C(=O)N3CCCOCCNC(=O)[C@@H]4CCC[C@@H]43)CC2)cc1
19,777 s,CCOc1cccc(CNC(=O)C2CCc3nc(N4CCCCC4)ncc3C2)c1 (stereo not drawn)
20,877 s,Cc1ccc(CNC(=O)NCCC2CCN(S(=O)(=O)c3ccccc3)CC2)cc1
21,776 s,COc1ccc(-c2nc(-c3ccc4c(c3)ncn4CCC(=O)N3CCCC3)no2)cc1OC
22,799 s,CCN(CC)C(=O)c1c2c(cn(-c3ccc(C)cc3)c1=O)C(=O)CC(C)(C)C2

row,RP-LC retention time,SMILES
1,764 s,CSc1ccc(NC(=O)COc2ccccc2)nn1
2,653 s,Cc1ccc(NC(=O)N2CCN(c3cnn4c(C5CC5)nnc4c3)CC2)cc1
3,723 s,O=C(NCc1ccccc1)N1CCN(Cc2nc3ccc(Cl)cc3o2)CC1
4,615 s,O=C(NCc1ccccn1)C1CCN(c2cnn(Cc3ccccc3)c(=O)c2)CC1
5,632 s,CCc1nnc(-c2cc(NC(=O)c3ccc4nc[nH]c4c3)c(C)s2)o1
6,944 s,Cc1ccccc1CNC(=O)C1(C)CCCN(S(=O)(=O)c2ccccc2)C1 (stereo not drawn)
7,952 s,CCOc1ccc(CCNC(=O)c2nc(CCS(=O)(=O)c3ccc(F)cc3)no2)cc1OCC
8,745 s,COC(=O)c1ccc(C(=O)Nc2nnc(-c3ccc(Br)o3)o2)cc1
9,1040 s,COc1ccc(NC(=O)Cn2cccc2-c2nc(-c3ccc4c(c3)OCO4)no2)cc1OC
10,863 s,COc1ccc(CNC(=O)CN2C(=O)NC3(CCC(C(C)(C)C)CC3)C2=O)cc1OC (stereo not drawn)
11,630 s,CCOc1ccc(NC(=O)N2CCC(n3cnnc3C3CC3)C2)cc1 (stereo not drawn)
12,964 s,COc1cc(C2C(=O)N(C3CCCCC3)CC(=O)N2Cc2ccco2)ccc1OC(C)C (stereo not drawn)
13,592 s,COc1cccc(N2CCN(C(=O)c3ccc4c(c3)NC(=O)C3CCCCN43)CC2)c1 (stereo not drawn)
14,725 s,COC(=O)c1sc2cccc(F)c2c1S(=O)(=O)N1CCN(c2ccccn2)CC1
15,1090 s,Cn1cc(-c2nc(C(=O)Nc3ccc(Cl)cc3)cs2)c2cccnc21
16,1100 s,O=C(c1cccc2[nH]ccc12)N1CC(Oc2ccc(-c3nc(-c4ccccc4)no3)cc2)C1
17,872 s,O=C(NCCC1=CCCCC1)C1CCCN(c2ncnc3c2oc2ccccc23)C1 (stereo not drawn)
18,869 s,CSc1ccc2c(c1)C(N1CCN(C)CC1)Cc1ccccc1S2 (stereo not drawn)
19,771 s,CCOCC(=O)N1CC(c2nc(-c3ccc(F)cc3)no2)C2(CCOCC2)C1 (stereo not drawn)
20,758 s,Cn1c(=O)c2nc(S(=O)(=O)CCC(=O)Nc3ccc(F)c(F)c3)n(C)c2n(C)c1=O
21,1300 s,Cc1ccccc1-c1noc(CSc2nc3cc4c(cc3c(=O)n2Cc2ccccc2)OCO4)n1
22,759 s,COC(=O)c1ncn2c1C(=O)N(Cc1cccc(C)c1)C(C)(C(=O)NCc1ccccc1)C2 (stereo not drawn)

row,RP-LC retention time,SMILES
1,806 s,O=C(Cc1csc2nc(-c3ccccc3)cn12)NCCc1ccc(Cl)cc1
2,630 s,O=C(c1nc2nc(-c3ccco3)cc(C(F)(F)F)n2n1)N1CCN(c2ccccn2)CC1
3,956 s,CN(CCc1noc(-c2ccccc2)n1)C(=O)Nc1ccccc1Br
4,743 s,O=C(Nc1ccccc1F)N1CCC(n2cnc3ccc(F)cc3c2=O)CC1
5,767 s,O=C(Nc1nnc(-c2ccccc2Cl)o1)c1cccc([N+](=O)[O-])c1
6,923 s,O=C(Cc1csc(SCC(=O)c2cccs2)n1)Nc1ccc(F)c(Cl)c1
7,885 s,Cc1ccn(-c2ccc(C(=O)Nc3ccccc3)cn2)n1
8,690 s,CCCc1noc(-c2cccnc2N2CCCN(Cc3ccccc3)CC2)n1
9,810 s,CCOC(=O)CC1(NC(=O)N2CCc3c(c(C(=O)N4CCCCC4)nn3C)C2)CCCCC1
10,860 s,Cn1cccc1C(=O)NCc1cnoc1-c1ccc(F)cc1
11,867 s,COc1ccc(NC(=O)c2sc(-c3cn(C)c4ncccc34)nc2C)cc1
12,756 s,Cc1ccc(C2Cn3cnc(C(=O)N4CCC(C(=O)NCc5cccs5)CC4)c3CO2)cc1 (stereo not drawn)
13,985 s,CN(C)c1cccc(C(=O)N2CCCC2c2nc(-c3ccc(F)cc3)no2)c1 (stereo not drawn)
14,735 s,Cc1ccc(NC(=O)C2CCc3nc(N4CCOCC4)ncc3C2)cc1F (stereo not drawn)
15,830 s,O=C(NCc1ccco1)c1ccc2c(c1)N(Cc1ccc(F)cc1)C(=O)CO2
16,769 s,Cc1cccc(CCNC(=O)C2CCN(S(=O)(=O)N3CCOCC3)CC2)c1
17,658 s,COCCNc1ncc(C(=O)O)c(-c2ccc(OC)cc2)n1
18,639 s,Cc1c(C2CCN(C(=O)NCc3ccccc3)CC2)noc1N
19,779 s,CCS(=O)(=O)N1CC(=O)N(c2cccc(F)c2)C(C)(C(=O)NCc2ccccc2)C1 (stereo not drawn)
20,1010 s,CCOC(=O)c1ccccc1NC(=O)Cn1nc2c(N3CCSCC3)nccn2c1=O
21,704 s,COc1cc2ncnc(Nc3ccc(F)c(Cl)c3)c2cc1NC(=O)/C=C/CN1CCCCC1

row,SMILES,RP-LC retention time
1,CCc1c(C(=O)O)nnn1Cc1c(F)cccc1Cl,742 s
